Source: US11517645B2, “Bone-tendon graft biomaterial, use as a medical device and method of making same” (The Board of Trustees of the Leland Stanford Junior …, priority 2016, dated 2022)

How the values were obtained:
[1] = system: C2C12 cells; experiment: ALP staining, C2C12 osteoblast differentiation on QHM polymers with BMP-2 in media; format: cell-based, mouse; details: 25 μM blebbistatin
Experimental: ALP activity was detected according to the manufacturer's instructions (Sigma Aldrich, St. Louis, Mo.) as previously described with minor modifications^18,19.
(§1) For studies on the effect of Young's moduli on osteoblast differentiation (using uniform QHM polymer samples), C2C12 cells were seeded into 24 well plates containing uncoated QHM polymer samples (circular discs approximately 1 cm in diameter) at a density of 7.47×10^4 cells per cm^2 overnight in DMEM, 10% FBS and 1% PS media. […] Media were changed every 48 h. ALP staining was performed at 4, 8 and 14 days.
as §1, with “0 s:300 s UV mechanically-graded” for “uniform”, “(rectangular specimens measuring” for “(circular discs”, “0.5 cm×1 cm)” for “1 cm in diameter)”, “were” for “was”, “3 days post-seeding.” for “4, 8 and 14 days.”
At designated time points, cells were fixed for 1 min in 3.7% formaldehyde and samples were incubated with ALP stain for 1 h. Color images of samples were acquired using an inverted Zeiss AxioObserver Z1 microscope equipped with an AxioCam ICC color camera and a Nikon D70 Digital camera (Nikon Corp., Tokyo, Japan). Where required, the ALP-stained images were quantified by calculating the average pixel intensity in Adobe Photoshop 7.0 as previously described^18,19.

[2] = system: C2C12 cells; experiment: SCX immunofluorescence, C2C12 tenocyte differentiation on QHM polymers; format: cell-based, mouse; details: fibrin-coated QHM polymers in vitro, 3 days
Experimental: (§2) Immunofluorescence staining was performed as previously described with minor modifications^18,19.
For studies on the effect of Young's moduli on osteoblast or tenocyte differentiation (using uniform or 0 s:300 s UV mechanically-graded QHM polymer samples), C2C12 cells were seeded into 24 well plates containing uncoated QHM polymer samples (circular discs approximately 1 cm in diameter or rectangular specimens measuring approximately 0.5 cm×1 cm) at a density of 7.47×10^4 cells per cm^2 overnight in DMEM, 10% FBS and 1% PS media. […] Media were changed every 48 h. SCX staining was performed at 3 days post-seeding. RUNT-RELATED TRANSCRIPTION FACTOR-2 (RUNX-2) or OSTEOCALCIN (OCN) staining was performed at 4 days post-seeding. […]
(§3) Samples were permeabilized with 0.2% Triton X-100 (Sigma Aldrich, St. Louis, Mo.), washed three times in wash buffer (PBS and 0.1% BSA) and blocked with 10% donkey serum (Jackson Immunoresearch, West Gove, Pa.) for 1 h at room temperature. […] Lastly, cells were rinsed five times with wash buffer (5 min each) and fluorescence images were acquired on an inverted Zeiss AxioObserver Z1 microscope equipped with an X-Cite® Series 120Q metal halide lamp, appropriate filters and an AxioCam MRm camera.

[3] = system: C2C12 cells; experiment: TENASCIN C and TENOMODULIN immunofluorescence, C2C12 on TCPS with FGF-2; format: cell-based, mouse; details: 50 or 100 ng/mL FGF-2, TCPS, 3 days
Experimental: as §2
For in vitro studies not involving QHM polymers, C2C12 cells were seeded into 24 well plates at a density of 7.47×10^4 cells per cm^2 in DMEM, 10% FBS, 1% PS media. The following day (Day 0), the media were changed to DMEM, 10% FBS, 1% PS with 0, 50 or 100 ng/mL FGF-2. Media were changed every 48 h. Cells were fixed in 4% paraformaldehyde (Electron Microscopy Sciences, Hatfield, Pa.) for 15 min and TENOMODULIN or TENASCIN C staining was performed at 3 days post-seeding.
as §3

[4] = system: C57BL-6J mice; experiment: Mouse subcutaneous implantation of growth factor-biopatterned QHM grafts; format: in vivo; details: 3 μg patterned on fibrin-coated QHM polymer, 14 days subcutaneous
Experimental: Mouse subcutaneous surgeries were performed in accordance with the guidelines established by Stanford University's Administrative Panel on Laboratory Animal Care. Wild-type C57BL-6J mice (Charles River Laboratories, Wilmington, Mass.) between 8 and 12 weeks of age (20-30 g) were used in this study. All mice were maintained in the Stanford Animal Facility, with a 12:12 h light-dark cycle and free access to standard laboratory food and water. Mice were anesthetized by inhalation with isoflurane (4% for induction, 2% for maintenance, Abbott Laboratories, Chicago) as well as administered 0.05 mg/kg Buprenorphine (Hospira Inc., Lake Forest, Ill.) and 25 mg/kg Cefazolin (Thermo Fisher Scientific, Waltham, Mass.) as an analgesic and anti-infective, respectively. Grafts (Square specimens 6×6×1 mm) were comprised of 0 s UV and 300 s UV QHM polymer regions (each measuring 3×3×1 mm) biopatterned with 1) no growth factor, 2) 3 μg FGF-2 on 0 s UV QHM polymer region and 3 μg BMP-2 on 300 s UV QHM polymer region or 3) 3 μg GDF-7 on 0 s UV QHM polymer region and 3 μg BMP-2 on 300 s UV QHM polymer region. Under sterile conditions, a 2.5 cm skin incision was made and grafts were sutured subcutaneously to the skin using 3-0 Nylon sutures (Oasis, Med-Vet International, Mettawa, Ill.) in a bilateral manner. Subsequently, the skin was re-approximated and closed with 3-0 Nylon sutures. […]

Cc1ccc2c(c1)C(=O)C1(O)CCN(c3ccccc3)C1=N2 (stereo not drawn) [blebbistatin]
Effect on BMP-2-induced ALP activity on QHM polymers ([1]; 4 days): inhibited slightly
Effect on C2C12 ALP activity on TCPS ([1]; 4 days): did not inhibit
Inhibitory effect on ALP activity ([1]; 8 days): occurred only on 0 s UV QHM polymer
Inhibitory effect on ALP activity ([1]; 14 days): no longer observed

FGF-2: fibroblast growth factor-2 (Peprotech), tendon-promoting cue
C2C12 SCX expression on FGF-2 patterns relative to off pattern controls [2]: largely increased
TENASCIN C expression relative to untreated controls [3]: increased TENASCIN C expression
TENOMODULIN expression relative to untreated controls [3]: increased TENOMODULIN expression
Tissue formed on growth factor pattern in vivo [4]: reminiscent of immature tendon

B1: GDF-7: growth and differentiation factor-7 (Sino Biological), tendon-promoting cue (protein, UniProt Q7Z4P5 322-450, looked up)
Growth/differentiation factor …: TALAGTRTAQGSGGGAGRGHGRRGRSRCSRKPLHVDFKELGWDDWIIAPLDYEAYHCEGLCDFPLRSHLEPTNHAIIQTLLNSMAPDAAPASCCVPARLSPISILYIDAANNVVYKQYEDMVVEACGCR
Tissue formed on growth factor pattern in vivo [4]: reminiscent of immature tendon
